Like-named read-outs stand apart in the source and are kept apart here. Non-standard residues stand in square brackets, D forms with d. Residues, ends and D or L forms follow the SMILES beside them. *: point of attachment. Dansyl = CN(C)c1cccc2c(S(=O)(=O)*)cccc12; Sar = CNCC(=O)O
Assays:
PEPT1 = target: T1, PEPT1 (Homo sapiens, UniProt P46059); test: Transport currents (Vmax vs Gly-Sar) in Xenopus oocytes transfected with PEPT1, two-electrode voltage-clamp; type: cell-based; settings: for Substrate quality for PEPT1 relative to Gly-Sar (in words): cells transfected with PEPT1; for PEPT1 (% Gly-Sar) drug only (Vmax) / PEPT1 (% Gly-Sar) +XP10973 (Vmax): oocytes transfected with PEPT1; for PEPT1 (% Gly-Sar) +XP10973 (Vmax): in the presence of inhibitor XP10973
T1 construct: The complete open reading frame was cloned into a Xenopus oocyte expression plasmid; expressed in transfected cells; host or cells: Xenopus oocytes injected with cRNA
T1 sequence (P46059 1-708): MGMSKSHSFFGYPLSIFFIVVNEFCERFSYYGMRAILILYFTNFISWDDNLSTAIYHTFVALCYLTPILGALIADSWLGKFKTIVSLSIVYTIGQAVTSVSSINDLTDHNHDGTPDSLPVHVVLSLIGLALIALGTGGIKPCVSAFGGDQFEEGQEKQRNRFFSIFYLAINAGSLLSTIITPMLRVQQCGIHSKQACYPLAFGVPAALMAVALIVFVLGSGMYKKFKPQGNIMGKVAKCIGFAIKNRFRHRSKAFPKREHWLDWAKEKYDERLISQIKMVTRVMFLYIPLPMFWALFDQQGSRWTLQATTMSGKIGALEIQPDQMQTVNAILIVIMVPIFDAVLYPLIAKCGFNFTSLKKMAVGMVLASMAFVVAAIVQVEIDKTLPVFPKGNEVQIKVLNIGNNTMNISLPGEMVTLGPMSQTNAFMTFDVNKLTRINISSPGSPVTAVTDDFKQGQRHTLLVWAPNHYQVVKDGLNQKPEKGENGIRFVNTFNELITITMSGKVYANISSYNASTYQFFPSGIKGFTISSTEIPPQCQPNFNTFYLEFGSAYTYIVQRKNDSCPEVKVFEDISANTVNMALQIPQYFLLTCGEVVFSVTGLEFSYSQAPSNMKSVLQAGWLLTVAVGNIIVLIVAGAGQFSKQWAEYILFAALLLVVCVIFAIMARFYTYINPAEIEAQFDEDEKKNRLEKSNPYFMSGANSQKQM
Experimental: (§1) The complete open reading frame was cloned into a Xenopus oocyte expression plasmid, linearized, and cRNA was generated by run-off transcription using the T7 polymerase. Xenopus oocytes were prepared and maintained as previously described
(§2) (Collins, et al., 1997) and injected with 10-30 ng RNA. Transport currents were measured 2-4 days after injection using two-electrode voltage-clamp (Axon Instruments). All experiments were performed using a modified oocyte Ringers solution (90 mM NaCl, 2 mM KCl, 1.8 mM CaCl2, 1 mM MgCl2, and 10 mM NaHEPES, pH 6.8). The membrane potential of oocytes was held at −60 mV and current traces acquired using PowerLab software. Responses to compounds were measured in the presence and absence of a specific non-transported inhibitor (XP10973) for PEPT1 and PEPT2. Data are expressed as the currents that are blocked by XP10973

PEPT2 = target: T2, PEPT2 (Homo sapiens, UniProt Q16348, S640G); test: Transport currents (Vmax vs Gly-Sar) in Xenopus oocytes transfected with PEPT2, two-electrode voltage-clamp; type: cell-based; settings: for Substrate preference PEPT2 versus PEPT1 (in words): comparison of PEPT2 and PEPT1 transfected oocytes
T2 construct: The complete open reading frame was cloned into a Xenopus oocyte expression plasmid; expressed in transfected cells; host or cells: Xenopus oocytes injected with cRNA
T2 sequence (Q16348 1-729 S640G): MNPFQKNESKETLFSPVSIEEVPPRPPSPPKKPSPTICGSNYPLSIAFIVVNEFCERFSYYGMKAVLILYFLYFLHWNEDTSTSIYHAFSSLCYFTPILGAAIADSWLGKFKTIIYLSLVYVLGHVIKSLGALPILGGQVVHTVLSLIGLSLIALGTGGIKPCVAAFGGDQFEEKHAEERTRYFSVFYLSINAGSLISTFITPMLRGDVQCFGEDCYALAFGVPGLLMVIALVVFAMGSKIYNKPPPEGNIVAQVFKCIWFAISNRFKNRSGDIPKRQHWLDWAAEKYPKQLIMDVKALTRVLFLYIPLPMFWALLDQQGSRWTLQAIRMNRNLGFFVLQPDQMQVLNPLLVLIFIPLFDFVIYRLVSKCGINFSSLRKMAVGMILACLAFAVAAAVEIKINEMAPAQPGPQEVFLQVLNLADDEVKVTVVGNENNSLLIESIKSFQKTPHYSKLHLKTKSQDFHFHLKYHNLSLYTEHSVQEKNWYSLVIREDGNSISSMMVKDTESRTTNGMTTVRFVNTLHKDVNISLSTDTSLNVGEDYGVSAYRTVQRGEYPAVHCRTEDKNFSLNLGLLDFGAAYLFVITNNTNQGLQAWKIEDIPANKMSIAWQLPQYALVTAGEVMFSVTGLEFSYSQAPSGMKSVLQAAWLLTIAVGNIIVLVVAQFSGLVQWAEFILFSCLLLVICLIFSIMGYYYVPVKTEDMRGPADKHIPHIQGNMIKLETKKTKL
Experimental: as §1
as §2, with “Transport” for “(Collins, et al., 1997) and injected with 10-30 ng RNA. Transport”

Caco-2 cells = type: in vitro ADME
Experimental: Caco-2 cells were plated on Millipore transwell filters and allowed to differentiate for 18-22 days. Integrity of the monolayers was confirmed by lack of radiolabeled inulin transport across the monolayer. Compounds were added to the apical chamber, and the appearance of compounds in the basolateral chamber were measured at various timepoints by scintillation counting or LC/MS/MS.
FIGS. 1 and 2 show uptake of cephradine and cefadroxil by Caco-2 cells in the presence and absence of XP10973 inhibitor. […] However, as described above, cephradine and cefadroxil are poor substrates for PEPT1 and good substrates for PEPT2.

[1] = oocytes transfected with PEPT2, drug only
[2] = oocytes transfected with PEPT2, in the presence of inhibitor XP10973

Substrate quality for PEPT1 relative to Gly-Sar (in words) (PEPT1)	PEPT1 (% Gly-Sar) drug only (Vmax) (PEPT1) [% Gly-Sar]	PEPT1 (% Gly-Sar) +XP10973 (Vmax) (PEPT1) [% Gly-Sar]	Substrate quality for PEPT2 relative to Gly-Sar (in words) (PEPT2; cells transfected with PEPT2)	PEPT2 (% Gly-Sar) drug only (Vmax) (PEPT2; [1]) [% Gly-Sar]	PEPT2 (% Gly-Sar) +XP10973 (Vmax) (PEPT2; [2]) [% Gly-Sar]	Uptake by Caco-2 cells (in words) (Caco-2 cells)	Inhibition of PEPT1 transport (in words) (PEPT1)	Inhibition of PEPT2 transport (in words) (PEPT2)	Structure (SMILES)	PEPT2 (% Gly-Sar) +XP10973 (Vmax) (PEPT2) [% Gly-Sar]	PEPT2 (% Gly-Sar) drug only (Vmax) (PEPT2) [% Gly-Sar]	Substrate quality for PEPT2 relative to Gly-Sar (in words) (PEPT2)	Substrate preference PEPT2 versus PEPT1 (in words) (PEPT2)
relatively poor susbstrates	3.5	1.9	relatively good substrates	159	37	taken up			CC1=C(C(=O)O)N2C(=O)[C@@H](NC(=O)[C@H](N)C3=CCC=CC3)[C@H]2SC1 [Cephradine, cephradine]				better substrates for PEPT2 than they are for PEPT1
	100	16		100	12				CN(CC(=O)O)C(=O)CN [Gly-Sar] (H-Gly-[Sar]-OH)				
							specific inhibitor	specific inhibitor	CC(C)C[C@H](NC(=O)[C@@H](N)CCCCNS(=O)(=O)c1cccc2c(N(C)C)cccc12)C(=O)O [XP10973] (H-Lys(Dansyl)-Leu-OH)				

More lines, now with the values behind:

Structure (SMILES)	Substrate quality for PEPT1 relative to Gly-Sar (in words) (PEPT1)	PEPT1 (% Gly-Sar) drug only (Vmax) (PEPT1) [% Gly-Sar]	PEPT1 (% Gly-Sar) +XP10973 (Vmax) (PEPT1) [% Gly-Sar]	Substrate quality for PEPT2 relative to Gly-Sar (in words) (PEPT2; cells transfected with PEPT2)	PEPT2 (% Gly-Sar) drug only (Vmax) (PEPT2; [1]) [% Gly-Sar]	PEPT2 (% Gly-Sar) +XP10973 (Vmax) (PEPT2; [2]) [% Gly-Sar]	Uptake by Caco-2 cells (in words) (Caco-2 cells)	Inhibition of PEPT1 transport (in words) (PEPT1)	Inhibition of PEPT2 transport (in words) (PEPT2)	PEPT2 (% Gly-Sar) +XP10973 (Vmax) (PEPT2) [% Gly-Sar]	PEPT2 (% Gly-Sar) drug only (Vmax) (PEPT2) [% Gly-Sar]	Substrate quality for PEPT2 relative to Gly-Sar (in words) (PEPT2)	Substrate preference PEPT2 versus PEPT1 (in words) (PEPT2)
CC1(C)S[C@@H]2[C@H](NC(=O)[C@H](N)c3ccc(O)cc3)C(=O)N2[C@H]1C(=O)O [Amoxacillin, amoxacillin]	relatively poor susbstrates	1.3	1.1							15	85	relatively good substrates	
N[C@@H](C(=O)N[C@@H]1C(=O)N2C(C(=O)O)=C(Cl)CS[C@H]12)c1ccccc1 [Cefaclor, cefaclor]	relatively poor susbstrates	4	1.6	relatively good substrates	148	22							better substrates for PEPT2 than they are for PEPT1
CC1=C(C(=O)O)N2C(=O)[C@@H](NC(=O)[C@H](N)c3ccc(O)cc3)[C@H]2SC1 [Cephadroxil, cefadroxil]	relatively poor susbstrates	18	2.1	relatively good substrates	96	27	taken up						better substrates for PEPT2 than they are for PEPT1
